| melting point | Structure (SMILES) |
| --- | --- |
| 224 °C | COC(=O)c1nc(-c2nc3ccccc3s2)cc(N)c1Cl [Compound 9, Methyl 4-amino-3-chloro-6-(2-benzthiazolyl)pyridine-2-carboxylate] |
| 122 to 123 °C | COC(=O)c1nc(-c2cccc(OC)c2)cc(N)c1Cl [Compound 24, Methyl 4-amino-3-chloro-6-(3-methoxyphenyl)pyridine-2-carboxylate] |
| 115 to 117 °C | COC(=O)c1nc(-c2ccccc2Cl)cc(N)c1Cl [Compound 26, Methyl 4-amino-3-chloro-6-(2-chlorophenyl)pyridine-2-carboxylate] |
| 146 to 148 °C | COC(=O)c1nc(-c2ccc(C(C)=O)cc2)cc(N)c1Cl [Compound 31, Methyl 4-amino-3-chloro-6-(4-acetylphenyl)pyridine-2-carboxylate] |
| 191 to 192 °C | COC(=O)c1nc(-c2cc(Br)ccc2OC)cc(N)c1Cl [Compound 32, Methyl 4-amino-3-chloro-6-(5-bromo-2-methoxyphenyl)pyridine-2-carboxylate] |
| 92 to 93 °C | COC(=O)c1nc(-c2ccc(C(C)C)cc2)cc(N)c1Cl [Compound 35, Methyl 4-amino-3-chloro-6-(4-isopropylphenyl)pyridine-2-carboxylate] |
| 121 to 122 °C | COC(=O)c1nc(-c2ccccc2F)cc(N)c1Cl [Compound 37, Methyl 4-amino-3-chloro-6-(2-fluorophenyl)pyridine-2-carboxylate] |
| 155 to 156 °C | COC(=O)c1nc(-c2ccc(Cl)c(C)c2)cc(N)c1Cl [Compound 38, Methyl 4-amino-3-chloro-6-(4-chloro-3-methylphenyl)pyridine-2-carboxylate] |
| 170 °C | COC(=O)c1nc(-c2ccc(Cl)c(Cl)c2)cc(N)c1Cl [Compound 40, Methyl 4-amino-3-chloro-6-(3,4-dichlorophenyl)pyridine-2-carboxylate] |
| 106 to 108 °C | COC(=O)c1nc(-c2ccc(C=O)cc2)cc(N)c1Cl [Compound 41, Methyl 4-amino-3-chloro-6-(4-formylphenyl)pyridine-2-carboxylate] |
| 139 to 140 °C | COC(=O)c1nc(-c2cccc(C#N)c2)cc(N)c1Cl [Compound 42, Methyl 4-amino-3-chloro-6-(3-cyanophenyl)pyridine-2-carboxylate] |
| 119 to 120 °C | COC(=O)c1nc(-c2ccc(OC(F)(F)F)cc2)cc(N)c1Cl [Compound 56, Methyl 4-amino-3-chloro-6-[4-(trifluoromethoxy)phenyl]pyridine-2-carboxylate] |
| 156 to 157 °C | COC(=O)c1nc(-c2ccc(Cl)c(F)c2)cc(NC(C)=O)c1Cl [Compound 60, Methyl 4-acetamido-3-chloro-6-(4-chloro-3-fluorophenyl)pyridine-2-carboxylate] |
| 149 to 151 °C | COC(=O)c1nc(-c2ccc(Cl)c(F)c2)cc(N)c1Cl [Compound 61, Methyl 4-amino-3-chloro-6-(4-chloro-3-fluorophenyl)pyridine-2-carboxylate] |
| 126 to 127 °C | COC(=O)c1nc(-c2ccc(OC)c(OC)c2)cc(N)c1Cl [Compound 64, Methyl 4-amino-3-chloro-6-(3,4-dimethoxyphenyl)pyridine-2-carboxylate] |
| 152 to 154 °C | COC(=O)c1nc(-c2ccc(Cl)cc2OC)cc(N)c1Cl [Compound 68, Methyl 4-amino-3-chloro-6-(4-chloro-2-methoxyphenyl)pyridine-2-carboxylate] |
| 73 to 74 °C | COCc1cc(-c2cc(N)c(Cl)c(C(=O)OC)n2)ccc1Cl [Compound 71, Methyl 4-amino-3-chloro-6-(4-chloro-3-methoxymethylphenyl)pyridine-2-carboxylate] |

More lines, now with the values behind:

| Structure (SMILES) | melting point |
| --- | --- |
| COC(=O)c1nc(-c2cnco2)cc(N)c1Cl [Compound 7, methyl 4-amino-3-chloro-6-(5-oxazolyl)pyridine-2-carboxylate] | 166 to 170 °C |
| COC(=O)c1nc(-c2nnnn2C)cc(N)c1Cl [Compound 10, Methyl 4-amino-3-chloro-6-(1-methyl-1H-tetrazol-5-yl)pyridine-2-carboxylate] | 239 to 241 °C |
| COC(=O)c1nc(-c2nnn(C)n2)cc(N)c1Cl [Compound 11, Methyl 4-amino-3-chloro-6-(2-methyl-2H-tetrazol-5-yl)pyridine-2-carboxylate] | 250 to 252 °C |
| COC(=O)c1nc(-c2ccc(Cl)cc2)c(F)c(N)c1Cl [Compound 14, Methyl 4-amino-3-chloro-5-fluoro-6-(4-chlorophenyl)pyridine-2-carboxylate] | 233 to 236 °C |
| COC(=O)c1nc(-c2ccc(OC)cc2)c(Cl)c(N)c1Cl [Compound 15, Methyl 4-amino-3,5-dichloro-6-(4-methoxyphenyl)pyridine-2-carboxylate] | 107 to 109 °C |
| COC(=O)c1nc(-c2cc(C(F)(F)F)cc(C(F)(F)F)c2)cc(N)c1Cl [Compound 46, Methyl 4-amino-3-chloro-6-(3,5-bis-(trifluoromethyl)phenyl)pyridine-2-carboxylate] | 139 to 140 °C |
| COC(=O)c1nc(-c2ccc(F)cc2Cl)cc(NC(C)=O)c1Cl [Compound 54, Methyl 4-acetamido-3-chloro-6-(2-chloro-4-fluorophenyl)pyridine-2-carboxylate] | 162 to 163 °C |
| COC(=O)c1nc(-c2c(F)cccc2F)cc(NC(C)=O)c1Cl [Compound 55, Methyl 4-acetamido-3-chloro-6-(2,6-difluorophenyl)pyridine-2-carboxylate] | 156 to 157 °C |
| COC(=O)c1nc(-c2cc(Cl)ccc2Cl)cc(NC(C)=O)c1Cl [Compound 57, Methyl 4-acetamido-3-chloro-6-(2,5-dichlorophenyl)pyridine-2-carboxylate] | 143 °C |
| COC(=O)c1nc(-c2ccc(OC)c(OC)c2)cc(NC(C)=O)c1Cl [Compound 63, Methyl 4-acetamido-3-chloro-6-(3,4-dimethoxyphenyl)pyridine-2-carboxylate] | 153 to 154 °C |
| COC(=O)c1nc(-c2ccc(Cl)cc2OC)cc(NC(C)=O)c1Cl [Compound 66, Methyl 4-acetamido-3-chloro-6-(4-chloro-2-methoxyphenyl)pyridine-2-carboxylate] | 176 to 178 °C |
| COCc1cc(-c2cc(NC(C)=O)c(Cl)c(C(=O)OC)n2)ccc1Cl [Compound 70, Methyl 4-acetamido-3-chloro-6-(4-chloro-3-methoxymethylphenyl)pyridine-2-carboxylate] | 120 to 122 °C |
| COC(=O)c1nc(-c2ccc3c(c2Cl)OCO3)cc(NC(C)=O)c1Cl [Compound 72, Methyl 4-acetamido-3-chloro-6-(2-chloro-3,4-methylenedioxyphenyl)pyridine-2-carboxylate] | 195 to 196 °C |
| COC(=O)c1nc(-c2ccc3c(c2Cl)OCO3)cc(N)c1Cl [Compound 73, Methyl 4-amino-3-chloro-6-(2-chloro-3,4-methylenedioxyphenyl)pyridine-2-carboxylate] | 155 to 156 °C |
| COC(=O)c1nc(-c2ccc3c(c2)CCC3)cc(NC(C)=O)c1Cl [Compound 74, Methyl 4-acetamido-3-chloro-6-(5-indanyl)pyridine-2-carboxylate] | 132 to 134 °C |
